# Measured values taken from US8349844B2, “Substituted pyrazolo [1,5-A] pyrimidines as metabotropic glutamate antagonists” (Hoffmann-La Roche Inc., priority 2005, dated 2013).
row,Structure (SMILES),melting point [°C]
1,"NS(=O)(=O)c1cccc(-c2noc(-c3cnn4c(C(F)(F)F)cc(-c5ccc(C(F)(F)F)cc5)nc34)n2)c1 [Example 2, 3-{5-[7-Trifluoromethyl-5-(4-trifluoromethyl-phenyl)-pyrazolo[1,5-a]pyrimidin-3-yl]-[1,2,4]oxadiazol-3-yl}-benzenesulfonamide]",262
2,"NS(=O)(=O)c1ccc(-c2noc(-c3cnn4c(C(F)F)cc(-c5ccc(C(F)(F)F)cc5)nc34)n2)cc1 [Example 4, 4-{5-[7-Difluoromethyl-5-(4-trifluoromethyl-phenyl)-pyrazolo[1,5-a]pyrimidin-3-yl]-[1,2,4]oxadiazol-3-yl}-benzenesulfonamide]",283
3,"NS(=O)(=O)c1cccc(-c2noc(-c3cnn4c(C(F)F)cc(-c5ccc(C(F)(F)F)cc5)nc34)n2)c1 [Example 5, 3-{5-[7-Difluoromethyl-5-(4-trifluoromethyl-phenyl)-pyrazolo[1,5-a]pyrimidin-3-yl]-[1,2,4]oxadiazol-3-yl}-benzenesulfonamide]",267
4,"NS(=O)(=O)c1cccc(-c2noc(-c3cnn4c(C(F)(F)F)cc(-c5ccc(Cl)cc5)nc34)n2)c1 [Example 10, 3-{5-[5-(4-Chloro-phenyl)-7-trifluoromethyl-pyrazolo[1,5-a]pyrimidin-3-yl]-[1,2,4]oxadiazol-3-yl}-benzenesulfonamide]",247
5,"NS(=O)(=O)c1ccc(-c2noc(-c3cnn4c(C(F)(F)F)cc(-c5ccc(Cl)cc5)nc34)n2)cc1 [Example 12, 4-{5-[5-(4-Chloro-phenyl)-7-trifluoromethyl-pyrazolo[1,5-a]pyrimidin-3-yl]-[1,2,4]oxadiazol-3-yl}-benzenesulfonamide]",296
6,"NS(=O)(=O)c1ccc(-c2noc(-c3cnc4c(C(F)(F)F)cc(-c5ccc(C(F)(F)F)cc5)cn34)n2)cc1 [Example 13, 4-{5-[8-Trifluoromethyl-6-(4-trifluoromethyl-phenyl)-imidazo[1,2-a]pyridin-3-yl]-[1,2,4]oxadiazol-3-yl}-benzenesulfonamide]",292
7,"NS(=O)(=O)c1ccc(-c2nc(-c3cnn4c(C(F)(F)F)cc(-c5ccc(C(F)(F)F)cc5)nc34)no2)cc1 [Example 14, 4-{3-[7-Trifluoromethyl-5-(4-trifluoromethyl-phenyl)-pyrazolo[1,5-a]pyrimidin-3-yl]-[1,2,4]oxadiazol-5-yl}-benzenesulfonamide]",292
8,"NS(=O)(=O)c1cccc(-c2nc(-c3cnn4c(C(F)(F)F)cc(-c5ccc(C(F)(F)F)cc5)nc34)no2)c1 [Example 15, 3-{3-[7-Trifluoromethyl-5-(4-trifluoromethyl-phenyl)-pyrazolo[1,5-a]pyrimidin-3-yl]-[1,2,4]oxadiazol-5-yl}-benzenesulfonamide]",285
9,"NS(=O)(=O)c1cccc(-c2noc(-c3cnn4c(C(F)(F)F)cc(-c5ccc(C(F)(F)F)c(OCC(F)(F)F)c5)nc34)n2)c1 [Example 16, 3-(5-{5-[3-(2,2,2-Trifluoro-ethoxy)-4-trifluoromethyl-phenyl]-7-trifluoromethyl-pyrazolo[1,5-a]pyrimidin-3-yl}-[1,2,4]oxadiazol-3-yl)-benzenesulfonamide]",250
10,"Cc1cc(-c2cc(C(F)(F)F)n3ncc(-c4nc(-c5cccc(S(N)(=O)=O)c5)no4)c3n2)ccc1C(F)(F)F [Example 17, 3-{5-[5-(3-Methyl-4-trifluoromethyl-phenyl)-7-trifluoromethyl-pyrazolo[1,5-a]pyrimidin-3-yl]-[1,2,4]oxadiazol-3-yl}-benzenesulfonamide]",270
11,"Cc1cc(-c2cc(C(F)(F)F)n3ncc(-c4nc(-c5ccc(S(N)(=O)=O)cc5)no4)c3n2)ccc1C(F)(F)F [Example 18, 4-{5-[5-(3-Methyl-4-trifluoromethyl-phenyl)-7-trifluoromethyl-pyrazolo[1,5-a]pyrimidin-3-yl]-[1,2,4]oxadiazol-3-yl}-benzenesulfonamide]",273
12,"NS(=O)(=O)c1cccc(-c2noc(-c3cnn4c(C(F)F)cc(-c5ccc(Cl)cc5)nc34)n2)c1 [Example 19, 3-{5-[5-(4-Chloro-phenyl)-7-difluoromethyl-pyrazolo[1,5-a]pyrimidin-3-yl]-[1,2,4]oxadiazol-3-yl}-benzenesulfonamide]",231
13,"Cc1cc(-c2cc(C(F)(F)F)n3ncc(-c4nc(-c5ccc(S(N)(=O)=O)s5)no4)c3n2)ccc1C(F)(F)F [Example 22, 5-{5-[5-(3-Methyl-4-trifluoromethyl-phenyl)-7-trifluoromethyl-pyrazolo[1,5-a]pyrimidin-3-yl]-[1,2,4]oxadiazol-3-yl}-thiophene-2-sulfonic acid amide]",324
14,"NS(=O)(=O)c1ccc(-c2noc(-c3cnn4c(C(F)(F)F)cc(-c5ccc(C(F)(F)F)c(OCC(F)(F)F)c5)nc34)n2)s1 [Example 23, 5-(5-{5-[3-(2,2,2-Trifluoro-ethoxy)-4-trifluoromethyl-phenyl]-7-trifluoromethyl-pyrazolo[1,5-a]pyrimidin-3-yl}-[1,2,4]oxadiazol-3-yl)-thiophene-2-sulfonic acid amide]",255
15,"NS(=O)(=O)c1ccc(-c2noc(-c3cnn4c(C(F)(F)F)cc(-c5cccc(C(F)(F)F)c5)nc34)n2)cc1 [Example 25, 4-{5-[7-Trifluoromethyl-5-(3-trifluoromethyl-phenyl)-pyrazolo[1,5-a]pyrimidin-3-yl]-[1,2,4]oxadiazol-3-yl}-benzenesulfonamide]",300
16,"NS(=O)(=O)c1cccc(-c2noc(-c3cnn4c(C(F)(F)F)cc(-c5cccc(C(F)(F)F)c5)nc34)n2)c1 [Example 26, 3-{5-[7-Trifluoromethyl-5-(3-trifluoromethyl-phenyl)-pyrazolo[1,5-a]pyrimidin-3-yl]-[1,2,4]oxadiazol-3-yl}-benzenesulfonamide]",251
17,"NS(=O)(=O)c1ccc(-c2noc(-c3cnn4c(C(F)(F)F)cc(-c5ccc(Cl)cc5)nc34)n2)s1 [Example 28, 5-{5-[5-(4-Chloro-phenyl)-7-trifluoromethyl-pyrazolo[1,5-a]pyrimidin-3-yl]-[1,2,4]oxadiazol-3-yl}-thiophene-2-sulfonic acid amide]",294
18,"NS(=O)(=O)c1ccc(-c2noc(-c3cnn4c(C(F)F)cc(-c5ccc(Cl)cc5)nc34)n2)s1 [Example 29, 5-{5-[5-(4-Chloro-phenyl)-7-difluoromethyl-pyrazolo[1,5-a]pyrimidin-3-yl]-[1,2,4]oxadiazol-3-yl}-thiophene-2-sulfonic acid amide]",259
19,"Cc1cc(-c2ccc(Cl)cc2)nc2c(-c3nc(-c4ccc(S(N)(=O)=O)s4)no3)cnn12 [Example 32, 5-{5-[5-(4-Chloro-phenyl)-7-methyl-pyrazolo[1,5-a]pyrimidin-3-yl]-[1,2,4]oxadiazol-3-yl}-thiophene-2-sulfonic acid amide]",253
20,"NS(=O)(=O)c1ccc(-c2nc(-c3cnn4c(C(F)(F)F)cc(-c5ccc(C(F)(F)F)cc5)nc34)no2)s1 [Example 33, 5-{3-[7-Trifluoromethyl-5-(4-trifluoromethyl-phenyl)-pyrazolo[1,5-a]pyrimidin-3-yl]-[1,2,4]oxadiazol-5-yl}-thiophene-2-sulfonic acid amide]",272
21,"Nc1ccc(-c2noc(-c3cnn4c(C(F)(F)F)cc(-c5ccc(C(F)(F)F)cc5)nc34)n2)cn1 [Example 35, 5-{5-[7-Trifluoromethyl-5-(4-trifluoromethyl-phenyl)-pyrazolo[1,5-a]pyrimidin-3-yl]-[1,2,4]oxadiazol-3-yl}-pyridin-2-ylamine]",257
22,"Nc1ccc(-c2noc(-c3cnn4c(C(F)F)cc(-c5ccc(C(F)(F)F)cc5)nc34)n2)cn1 [Example 36, 5-{5-[7-Difluoromethyl-5-(4-trifluoromethyl-phenyl)-pyrazolo[1,5-a]pyrimidin-3-yl]-[1,2,4]oxadiazol-3-yl}-pyridin-2-ylamine]",242
23,"Cc1cc(-c2cc(C(F)(F)F)n3ncc(-c4nc(-c5ccc(N)nc5)no4)c3n2)ccc1C(F)(F)F [Example 37, 5-{5-[5-(3-Methyl-4-trifluoromethyl-phenyl)-7-trifluoromethyl-pyrazolo[1,5-a]pyrimidin-3-yl]-[1,2,4]oxadiazol-3-yl}-pyridin-2-ylamine]",220
24,"Cc1cc(-c2ccc(Cl)cc2)nc2c(-c3nc(-c4cccc(S(N)(=O)=O)c4)no3)cnn12 [Example 38, 3-{5-[5-(4-Chloro-phenyl)-7-methyl-pyrazolo[1,5-a]pyrimidin-3-yl]-[1,2,4]oxadiazol-3-yl}-benzenesulfonamide]",275
25,"Cc1cc(-c2ccc(Cl)cc2)cn2c(-c3nc(-c4ccc(S(N)(=O)=O)cc4)no3)cnc12 [Example 39, 4-{5-[6-(4-Chloro-phenyl)-8-methyl-imidazo[1,2-a]pyridin-3-yl]-[1,2,4]oxadiazol-3-yl}-benzenesulfonamide]",311
26,"Cc1cc(-c2ccc(Cl)cc2)cn2c(-c3nc(-c4cccc(S(N)(=O)=O)c4)no3)cnc12 [Example 40, 3-{5-[6-(4-Chloro-phenyl)-8-methyl-imidazo[1,2-a]pyridin-3-yl]-[1,2,4]oxadiazol-3-yl}-benzenesulfonamide]",301
27,"Cc1cc(-c2ccc(C(F)(F)F)cc2)cn2c(-c3nc(-c4ccc(S(N)(=O)=O)cc4)no3)cnc12 [Example 43, 4-{5-[8-Methyl-6-(4-trifluoromethyl-phenyl)-imidazo[1,2-a]pyridin-3-yl]-[1,2,4]oxadiazol-3-yl}-benzenesulfonamide]",290
28,"Cc1cc(-c2ccc(C(F)(F)F)cc2)cn2c(-c3nc(-c4cccc(S(N)(=O)=O)c4)no3)cnc12 [Example 44, 3-{5-[8-Methyl-6-(4-trifluoromethyl-phenyl)-imidazo[1,2-a]pyridin-3-yl]-[1,2,4]oxadiazol-3-yl}-benzenesulfonamide]",326
29,"Cc1cc(-c2ccc(C(F)(F)F)cc2)cn2c(-c3nc(-c4ccc(S(N)(=O)=O)s4)no3)cnc12 [Example 45, 5-{5-[8-Methyl-6-(4-trifluoromethyl-phenyl)-imidazo[1,2-a]pyridin-3-yl]-[1,2,4]oxadiazol-3-yl}-thiophene-2-sulfonic acid amide]",285
